ChEMBL document CHEMBL2074392, “Three-dimensional quantitative structure-activity relationships of inhibitors of P-glycoprotein” (Mol Pharmacol, 2002)

What was measured:
Assay type in all cases: functional, cell-based
[1] = molecular target: T1, ATP-dependent translocase ABCB1 (Homo sapiens, UniProt P08183); experiment: TP_TRANSPORTER: increase in Vinblastine intracellular accumulation in MDR1-expressing LLC-PK1 cells
[2] = molecular target: T1, ATP-dependent translocase ABCB1; experiment: TP_TRANSPORTER: increase in Calcein-AM intracellular accumulation in MDR1-expressing LLC-PK1 cells
[3] = molecular target: T1, ATP-dependent translocase ABCB1; experiment: TP_TRANSPORTER: inhibition of Digoxin transepithelial transport (basal to apical) (Digoxin: 5 uM) in Caco-2 cells

T1 sequence (P08183 whole entry): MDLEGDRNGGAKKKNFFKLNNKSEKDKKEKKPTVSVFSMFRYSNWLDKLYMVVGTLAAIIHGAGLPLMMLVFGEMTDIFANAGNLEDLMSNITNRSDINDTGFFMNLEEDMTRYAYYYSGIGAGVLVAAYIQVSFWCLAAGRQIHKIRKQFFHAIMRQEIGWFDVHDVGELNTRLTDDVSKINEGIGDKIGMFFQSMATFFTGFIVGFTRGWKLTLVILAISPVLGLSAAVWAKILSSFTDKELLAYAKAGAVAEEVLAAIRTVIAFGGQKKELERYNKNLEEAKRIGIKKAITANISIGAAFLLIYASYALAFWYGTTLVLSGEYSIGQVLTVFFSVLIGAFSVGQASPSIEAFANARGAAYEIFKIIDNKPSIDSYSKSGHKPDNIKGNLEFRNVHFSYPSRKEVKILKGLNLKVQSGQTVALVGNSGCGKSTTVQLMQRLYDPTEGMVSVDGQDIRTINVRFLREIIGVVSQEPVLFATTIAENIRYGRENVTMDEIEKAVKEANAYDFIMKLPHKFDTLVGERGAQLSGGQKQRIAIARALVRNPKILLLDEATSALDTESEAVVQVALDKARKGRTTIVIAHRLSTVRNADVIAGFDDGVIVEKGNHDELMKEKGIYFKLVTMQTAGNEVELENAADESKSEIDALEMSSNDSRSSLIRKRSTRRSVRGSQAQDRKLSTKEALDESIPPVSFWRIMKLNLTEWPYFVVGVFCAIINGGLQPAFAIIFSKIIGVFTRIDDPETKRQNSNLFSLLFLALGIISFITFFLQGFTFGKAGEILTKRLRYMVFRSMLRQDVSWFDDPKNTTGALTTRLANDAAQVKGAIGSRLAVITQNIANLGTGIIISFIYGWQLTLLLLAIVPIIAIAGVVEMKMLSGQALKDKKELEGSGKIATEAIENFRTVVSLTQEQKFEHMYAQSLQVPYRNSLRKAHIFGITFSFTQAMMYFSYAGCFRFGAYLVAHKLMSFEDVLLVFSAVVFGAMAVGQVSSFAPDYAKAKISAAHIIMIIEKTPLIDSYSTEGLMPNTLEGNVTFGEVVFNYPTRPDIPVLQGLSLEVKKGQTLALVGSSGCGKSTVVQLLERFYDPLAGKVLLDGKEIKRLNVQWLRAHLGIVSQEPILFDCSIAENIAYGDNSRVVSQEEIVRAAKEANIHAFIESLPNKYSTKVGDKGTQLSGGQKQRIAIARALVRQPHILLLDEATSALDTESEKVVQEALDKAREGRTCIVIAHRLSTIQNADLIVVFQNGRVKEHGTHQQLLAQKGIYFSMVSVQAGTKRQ

SMILES	Ki [1]	Ki [2]	IC50 [3]
CC(C)[C@@]1(NC(=O)[C@@H]2C[C@@H]3c4cccc5[nH]cc(c45)C[C@H]3N(C)C2)O[C@@]2(O)[C@@H]3CCCN3C(=O)[C@H](Cc3ccccc3)N2C1=O [DIHYDROERGOCRISTINE]	16 µM	511 µM	–
CC(C)C[C@H]1C(=O)N2CCC[C@H]2[C@]2(O)O[C@](NC(=O)[C@@H]3C=C4c5cccc6[nH]cc(c56)C[C@H]4N(C)C3)(C(C)C)C(=O)N12 [ERGOCRYPTINE]	6.43 µM	12.2 µM	–
CN1C[C@H](C(=O)N[C@]2(C)O[C@@]3(O)[C@@H]4CCCN4C(=O)[C@H](Cc4ccccc4)N3C2=O)C=C2c3cccc4[nH]cc(c34)C[C@H]21 [ERGOTAMINE]	14.2 µM	98.9 µM	–
CC(C)C[C@H]1C(=O)N2CCC[C@H]2[C@]2(O)O[C@](NC(=O)[C@@H]3C=C4c5cccc6[nH]c(Br)c(c56)C[C@H]4N(C)C3)(C(C)C)C(=O)N12 [BROMOCRIPTINE]	3.96 µM	2.81 µM	–
OC(Cn1cncn1)(Cn1cncn1)c1ccc(F)cc1F [FLUCONAZOLE]	> 400 µM	> 1000 µM	–
C[C@@H](CO)NC(=O)[C@@H]1C=C2c3cccc4[nH]cc(c34)C[C@H]2N(C)C1 [ERGONOVINE]	> 100 µM	115 µM	–
CN1C[C@H](C(=O)N[C@]2(C)O[C@@]3(O)[C@@H]4CCCN4C(=O)[C@H](Cc4ccccc4)N3C2=O)C[C@@H]2c3cccc4[nH]cc(c34)C[C@H]21 [DIHYDROERGOTAMINE]	120 µM	> 1000 µM	–
CC(C)C[C@H]1C(=O)N2CCC[C@H]2[C@]2(O)O[C@](NC(=O)[C@@H]3C[C@@H]4c5cccc6[nH]cc(c56)C[C@H]4N(C)C3)(C(C)C)C(=O)N12 [DIHYDROERGOCRYPTINE]	19.8 µM	360 µM	–
COC(=O)[C@H]1[C@H]2C[C@@H]3c4[nH]c5cc(OC)ccc5c4CCN3C[C@H]2C[C@@H](OC(=O)c2cc(OC)c(OC)c(OC)c2)[C@@H]1OC [RESERPINE]	0.97 µM	12.2 µM	–
CC(C)[C@H]1C(=O)N2CCC[C@H]2[C@]2(O)O[C@](NC(=O)[C@@H]3C=C4c5cccc6[nH]cc(c56)C[C@H]4N(C)C3)(C(C)C)C(=O)N12 [ERGOCORNINE]	24.5 µM	105 µM	–
COc1ccc(CCCN2CCC(Cc3ccccc3)CC2)cc1OC	–	–	2.3 µM
CC(C)[C@@]1(NC(=O)[C@@H]2C=C3c4cccc5[nH]cc(c45)C[C@H]3N(C)C2)O[C@@]2(O)[C@@H]3CCCN3C(=O)[C@H](Cc3ccccc3)N2C1=O [ERGOCRISTINE]	13.3 µM	42.8 µM	–
